Patent US20260109715A1, “IMIDAZOPYRIDINE DERIVATIVES WITH BICYCLIC STRUCTURE” (PUBLIC UNIVERSITY CORPORATION YOKOHAMA CITY UNIVERSITY, priority 2022, published 2026)

How the values were obtained:
[1] = biological target: human SMG1 enzyme (Homo sapiens, UniProt Q96Q15); test: Measurement of SMG1 kinase activity (ADP-Glo Kinase Assay); type: biochemical; details: purified human SMG1 enzyme 5 nM, Upf1 peptide substrate, ATP 4 μM; qAC50 synonymous with IC50; read-out: Test Example 1 ADP-Glo IC50
How it was run: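 ADP-Glo luminescence readout of ADP made by 5 nM human SMG1 acting on 8 μg/mL Upf1 peptide with 4 μM ATP for 60 min at room temperature, after a 15 min enzyme–compound preincubation (1% DMSO; pH 7.5 HEPES, MnCl2). Activity scaled between DMSO and no-enzyme wells; IC50 by four-parameter logistic regression.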

[2] = tested on: Snhg1 transcript (NMD target gene) in EMT6 murine breast cancer cell line; test: Measurement of NMD inhibitory activity in cells (increase in Snhg1 transcript, real-time PCR); design: species or system mouse; details: Mus musculus, 6 hours treatment, concentration giving 1/2 of maximum Snhg1 fold change of positive control, read-out: Test Example 2 Cell-based Snhg1 EC50
How it was run: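 EMT6 cells treated with serially diluted compound (2% DMSO final) for 6 h; Snhg1 transcript quantified by real-time PCR (ΔΔCT, Tbp endogenous control, untreated wells set to 1). EC50 taken as concentration giving half the maximum fold change of a known NMD inhibitor positive control.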

[3] = tested on: Snhg1 transcript in tumor tissues of mice subcutaneously implanted with EMT6 murine breast cancer cell line; test: Evaluation of NMD inhibitory activity in vivo (Snhg1 transcript in EMT6 tumor tissue after oral administration); details: 6 hours after administration, BALB/c mice
Procedure: The NMD inhibitory activity of a compound of the present invention or a pharmaceutically acceptable salt thereof in vivo can be measured, for example, by the method described below. Using mice subcutaneously implanted with EMT6 murine breast cancer cell line, tumor tissues 6 hours after oral administration of a test substance are excised, and the increase in Snhg1 transcript is quantified as an indicator of NMD inhibition in the tumor, in the same manner as in the in vitro method.
In this test, NMD inhibitory activity in tumor tissues was evaluated when a test substance was orally administered to mice subcutaneously implanted with EMT6 murine breast cancer cell line. As an indicator of NMD inhibitory activity, the increase in the transcript of Snhg1, an NMD target gene, was quantified. First, BALB/c mice were subcutaneously implanted with EMT6 cells (ATCC), and engraftment was confirmed 7 days later. Six hours after administration of the test substance, mice were euthanized, and the collected tumor tissues were cryopreserved. RNA was extracted from the tumor tissues using the illustra RNAspin Mini RNA Isolation kit (GE Healthcare Life Sciences). After synthesizing cDNA using the High-Capacity cDNA Reverse Transcription Kits (Applied Biosystems, 4368813), the cDNA was mixed with PrimeTime Gene Expression Master Mix (Integrated DNA Technologies) and various probes, and gene expression was quantified by QuantStudio 6 Flex (Thermo Fisher Scientific Inc.). For the probe for the Snhg1 gene, which is an NMD target, Mm.PT.58.44039547 (FAM) (Integrated DNA Technologies) was used, and for the probe for the Gapdh gene, which is an endogenous control, Mm99999915_g2 (VIC-PL) (Applied Biosystems) was used. The relative quantification of Snhg1 transcripts in each sample was calculated by the ΔΔCT method using Gapdh as an endogenous control, and the expression level of Snhg1 in each test substance administration group was calculated by setting the expression level of the Vehicle group (0.5% methylcellulose administration group) to 1.

Sequence of human SMG1 enzyme (Q96Q15 whole entry): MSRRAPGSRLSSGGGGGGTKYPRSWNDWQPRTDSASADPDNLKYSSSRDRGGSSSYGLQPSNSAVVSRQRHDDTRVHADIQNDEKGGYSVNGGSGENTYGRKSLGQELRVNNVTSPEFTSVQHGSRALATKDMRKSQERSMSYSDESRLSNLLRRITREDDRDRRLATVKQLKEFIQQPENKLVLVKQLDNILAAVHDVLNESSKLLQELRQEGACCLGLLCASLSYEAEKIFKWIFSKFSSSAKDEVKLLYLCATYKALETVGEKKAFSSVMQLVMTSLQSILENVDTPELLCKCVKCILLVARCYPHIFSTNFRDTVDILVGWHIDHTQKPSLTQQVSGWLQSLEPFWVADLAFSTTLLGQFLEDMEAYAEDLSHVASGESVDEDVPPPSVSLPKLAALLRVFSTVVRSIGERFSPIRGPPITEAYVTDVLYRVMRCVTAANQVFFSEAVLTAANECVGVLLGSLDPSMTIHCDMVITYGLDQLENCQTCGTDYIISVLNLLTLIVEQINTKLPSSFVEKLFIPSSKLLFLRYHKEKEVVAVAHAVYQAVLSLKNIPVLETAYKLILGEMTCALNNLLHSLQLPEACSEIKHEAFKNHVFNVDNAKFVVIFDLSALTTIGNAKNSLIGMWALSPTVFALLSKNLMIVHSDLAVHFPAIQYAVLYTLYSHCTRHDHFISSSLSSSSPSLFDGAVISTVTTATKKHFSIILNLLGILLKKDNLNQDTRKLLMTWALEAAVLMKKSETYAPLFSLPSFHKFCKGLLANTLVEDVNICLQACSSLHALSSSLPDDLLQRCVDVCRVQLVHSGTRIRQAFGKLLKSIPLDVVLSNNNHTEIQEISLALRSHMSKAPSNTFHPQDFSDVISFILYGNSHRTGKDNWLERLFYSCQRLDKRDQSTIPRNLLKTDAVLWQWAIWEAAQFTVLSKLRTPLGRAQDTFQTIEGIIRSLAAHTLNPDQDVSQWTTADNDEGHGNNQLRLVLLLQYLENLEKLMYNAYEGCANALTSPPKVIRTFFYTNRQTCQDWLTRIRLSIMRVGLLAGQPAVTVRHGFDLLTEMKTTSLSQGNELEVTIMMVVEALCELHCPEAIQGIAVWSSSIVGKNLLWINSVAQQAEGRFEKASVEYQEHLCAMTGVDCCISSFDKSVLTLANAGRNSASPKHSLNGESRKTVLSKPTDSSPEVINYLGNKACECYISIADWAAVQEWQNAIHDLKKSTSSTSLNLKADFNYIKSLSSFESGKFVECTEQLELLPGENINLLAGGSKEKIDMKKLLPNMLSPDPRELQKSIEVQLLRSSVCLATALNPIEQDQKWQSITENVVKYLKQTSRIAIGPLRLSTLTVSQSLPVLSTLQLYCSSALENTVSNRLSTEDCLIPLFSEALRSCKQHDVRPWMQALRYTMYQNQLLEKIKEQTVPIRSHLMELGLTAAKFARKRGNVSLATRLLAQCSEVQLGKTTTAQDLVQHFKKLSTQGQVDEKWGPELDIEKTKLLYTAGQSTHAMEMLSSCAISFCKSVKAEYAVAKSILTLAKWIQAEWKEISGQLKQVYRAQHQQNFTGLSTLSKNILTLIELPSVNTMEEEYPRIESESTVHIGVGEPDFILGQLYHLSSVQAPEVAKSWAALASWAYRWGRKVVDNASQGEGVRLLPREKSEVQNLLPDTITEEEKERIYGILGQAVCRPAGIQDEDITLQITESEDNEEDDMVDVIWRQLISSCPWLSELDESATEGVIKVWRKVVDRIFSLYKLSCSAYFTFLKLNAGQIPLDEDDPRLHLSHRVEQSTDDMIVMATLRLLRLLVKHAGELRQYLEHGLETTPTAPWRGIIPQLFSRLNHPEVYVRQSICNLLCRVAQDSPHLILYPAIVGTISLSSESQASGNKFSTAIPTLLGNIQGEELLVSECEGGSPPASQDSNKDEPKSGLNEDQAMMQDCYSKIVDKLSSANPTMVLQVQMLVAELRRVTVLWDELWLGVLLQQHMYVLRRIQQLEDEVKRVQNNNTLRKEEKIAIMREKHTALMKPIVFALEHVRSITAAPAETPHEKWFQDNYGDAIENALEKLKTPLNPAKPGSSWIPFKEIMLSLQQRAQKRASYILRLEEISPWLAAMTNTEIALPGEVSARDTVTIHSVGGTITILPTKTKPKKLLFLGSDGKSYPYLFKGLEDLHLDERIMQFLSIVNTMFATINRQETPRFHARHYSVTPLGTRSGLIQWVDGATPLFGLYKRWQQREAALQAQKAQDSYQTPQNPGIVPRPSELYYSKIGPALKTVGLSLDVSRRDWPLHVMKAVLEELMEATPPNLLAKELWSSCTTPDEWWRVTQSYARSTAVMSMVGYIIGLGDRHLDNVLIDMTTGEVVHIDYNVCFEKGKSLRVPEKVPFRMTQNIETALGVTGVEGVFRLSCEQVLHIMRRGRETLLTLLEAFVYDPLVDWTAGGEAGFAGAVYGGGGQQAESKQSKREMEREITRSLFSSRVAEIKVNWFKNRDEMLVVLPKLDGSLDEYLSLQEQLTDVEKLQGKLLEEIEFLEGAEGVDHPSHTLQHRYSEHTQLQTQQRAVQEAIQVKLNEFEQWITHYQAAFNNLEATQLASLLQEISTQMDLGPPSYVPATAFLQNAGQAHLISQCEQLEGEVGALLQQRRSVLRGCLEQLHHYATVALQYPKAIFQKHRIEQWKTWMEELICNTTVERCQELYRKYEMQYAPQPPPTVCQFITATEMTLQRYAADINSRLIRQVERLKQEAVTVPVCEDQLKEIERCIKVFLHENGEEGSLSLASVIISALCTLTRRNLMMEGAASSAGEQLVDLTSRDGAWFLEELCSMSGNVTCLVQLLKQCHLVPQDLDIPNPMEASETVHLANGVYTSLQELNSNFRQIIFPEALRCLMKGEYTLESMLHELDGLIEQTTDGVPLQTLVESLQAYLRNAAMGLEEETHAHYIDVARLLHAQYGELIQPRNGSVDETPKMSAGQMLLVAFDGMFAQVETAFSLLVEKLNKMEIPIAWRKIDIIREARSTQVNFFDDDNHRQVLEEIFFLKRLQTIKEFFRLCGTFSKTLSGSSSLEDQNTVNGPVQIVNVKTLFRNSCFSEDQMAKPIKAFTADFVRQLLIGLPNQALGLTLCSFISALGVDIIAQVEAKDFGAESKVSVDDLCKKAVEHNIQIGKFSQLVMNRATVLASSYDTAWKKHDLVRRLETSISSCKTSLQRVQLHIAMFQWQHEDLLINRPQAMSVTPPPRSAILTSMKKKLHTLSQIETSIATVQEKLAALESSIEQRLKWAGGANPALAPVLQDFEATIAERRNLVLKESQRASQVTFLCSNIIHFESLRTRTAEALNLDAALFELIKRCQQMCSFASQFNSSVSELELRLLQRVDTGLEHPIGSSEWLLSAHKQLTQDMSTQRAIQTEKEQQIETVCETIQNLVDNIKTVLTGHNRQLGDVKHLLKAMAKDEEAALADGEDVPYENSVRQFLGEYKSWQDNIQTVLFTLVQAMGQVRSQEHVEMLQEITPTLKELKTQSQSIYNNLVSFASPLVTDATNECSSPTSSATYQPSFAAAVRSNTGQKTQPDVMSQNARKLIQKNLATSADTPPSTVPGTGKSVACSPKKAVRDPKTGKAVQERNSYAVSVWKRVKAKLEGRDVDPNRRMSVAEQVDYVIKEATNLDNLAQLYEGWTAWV

Row | SMILES | IC50 [1] [nM] | EC50 [2] [nM] | Snhg1 fold change ([3]; 12.5 mg/kg oral) | Snhg1 fold change ([3]; 10 mg/kg oral) | Snhg1 fold change ([3]; 25 mg/kg oral) | Snhg1 fold change ([3]; 30 mg/kg oral)
1 | CS(=O)(=O)O.[2H]C([2H])([2H])Oc1cccc(F)c1-c1nccc2[nH]c(=O)c(-c3nc4cnc(Cl)cc4[nH]3)cc12 [Example 135, 3-(6-chloro-1H-imidazo[4,5-c]pyridin-2-yl)-5-{2-fluoro-6-[(2H3)methyloxy]phenyl}-1,6-naphthyridin-2(1H)-one methanesulfonate] | 2.2 | 39 | 10 |  |  | 
2 | CCc1nc(Cl)cc2[nH]c(-c3cc4c(-c5c(O)cccc5F)nccc4[nH]c3=O)nc12.CS(=O)(=O)O [Example 137, 3-(6-chloro-4-ethyl-1H-imidazo[4,5-c]pyridin-2-yl)-5-(2-fluoro-6-hydroxyphenyl)-1,6-naphthyridin-2(1H)-one methanesulfonate] | 1.2 | 10 |  |  | 5.1 | 
3 | CCc1nc(Cl)cc2[nH]c(-c3cc4c(-c5cnc(C(F)F)cc5OC)nccc4[nH]c3=O)nc12.CS(=O)(=O)O [Example 141, 3-(6-chloro-4-ethyl-1H-imidazo[4,5-c]pyridin-2-yl)-5-[6-(difluoromethyl)-4-methoxypyridin-3-yl]-1,6-naphthyridin-2(1H)-one methanesulfonate] | 0.37 | 3.1 |  | 8.4 |  | 
4 | COc1ncccc1-c1nccc2[nH]c(=O)c(-c3nc4c(NCC(F)(F)F)nc(Cl)cc4[nH]3)cc12.CS(=O)(=O)O [Example 142, 3-{6-chloro-4-[(2,2,2-trifluoroethyl)amino]-1H-imidazo[4,5-c]pyridin-2-yl}-5-(2-methoxypyridin-3-yl)-1,6-naphthyridin-2(1H)-one methanesulfonate] | 0.63 | 3.7 |  | 11 |  | 
5 | COc1ncccc1-c1nccc2[nH]c(=O)c(-c3nc4c(NCC(F)F)nc(Cl)cc4[nH]3)cc12.CS(=O)(=O)O [Example 143, 3-{6-chloro-4-[(2,2-difluoroethyl)amino]-1H-imidazo[4,5-c]pyridin-2-yl}-5-(2-methoxypyridin-3-yl)-1,6-naphthyridin-2(1H)-one methanesulfonate] | 0.85 | 12 |  | 8.5 |  | 
6 | COc1cc(OC)c(-c2nccc3[nH]c(=O)c(-c4nc5c(C)nc(Cl)cc5[nH]4)cc23)cn1.CS(=O)(=O)O [Example 144, 3-(6-chloro-4-methyl-1H-imidazo[4,5-c]pyridin-2-yl)-5-(4,6-dimethoxypyridin-3-yl)-1,6-naphthyridin-2(1H)-one methanesulfonate] | 0.95 | 19 |  |  |  | 4.8
7 | CCc1nc(Cl)cc2[nH]c(-c3cc4c(-c5cnc(C(C)(F)F)cc5OC)nccc4[nH]c3=O)nc12.CS(=O)(=O)O [Example 147, 3-(6-chloro-4-ethyl-1H-imidazo[4,5-c]pyridin-2-yl)-5-[6-(1,1-difluoroethyl)-4-methoxypyridin-3-yl]-1,6-naphthyridin-2(1H)-one methanesulfonate] | 0.67 | 3.9 |  | 9.5 |  | 
8 | CCc1nc(Cl)cc2[nH]c(-c3cc4c(-c5c(C)nn(C(F)F)c5C)nccc4[nH]c3=O)nc12.CS(=O)(=O)O [Example 148, 3-(6-chloro-4-ethyl-1H-imidazo[4,5-c]pyridin-2-yl)-5-[1-(difluoromethyl)-3,5-dimethyl-1H-pyrazol-4-yl]-1,6-naphthyridin-2(1H)-one methanesulfonate] | 0.73 | 12 |  | 5.8 |  | 
9 | CS(=O)(=O)O.Cc1nn(C(F)F)c(C)c1-c1nccc2[nH]c(=O)c(-c3nc4c(N5CC[C@H]5C)nc(Cl)cc4[nH]3)cc12 [Example 149, 3-{6-chloro-4-[(2R)-2-methylazetidin-1-yl]-1H-imidazo[4,5-c]pyridin-2-yl}-5-[1-(difluoromethyl)-3,5-dimethyl-1H-pyrazol-4-yl]-1,6-naphthyridin-2(1H)-one methanesulfonate] | 0.67 | 0.61 |  | 12 |  | 

More lines, in order of falling IC50 [1], values ahead:

Row | IC50 [1] [nM] | EC50 [2] [nM] | SMILES | Snhg1 fold change ([3]; 12.5 mg/kg oral) | Snhg1 fold change ([3]; 10 mg/kg oral) | Snhg1 fold change ([3]; 25 mg/kg oral) | Snhg1 fold change ([3]; 30 mg/kg oral)
10 | 2.4 | 44 | CS(=O)(=O)O.[2H]C([2H])([2H])Oc1ccccc1-c1nccc2[nH]c(=O)c(-c3nc4cnc(Cl)cc4[nH]3)cc12 [Example 133, 3-(6-chloro-1H-imidazo[4,5-c]pyridin-2-yl)-5-{2-[(2H3)methyloxy]phenyl}-1,6-naphthyridin-2(1H)-one methanesulfonate] | 8.2 |  |  | 
11 | 1.2 | 3.1 | CCc1nc(Cl)cc2[nH]c(-c3cc4c(-c5cnc(C(F)(F)F)cc5OC)nccc4[nH]c3=O)nc12.CS(=O)(=O)O [Example 145, 3-(6-chloro-4-ethyl-1H-imidazo[4,5-c]pyridin-2-yl)-5-[4-methoxy-6-(trifluoromethyl)pyridin-3-yl]-1,6-naphthyridin-2(1H)-one methanesulfonate] |  | 8.9 |  | 
12 | 1.1 | 4 | CS(=O)(=O)O.Cc1c(-c2nccc3[nH]c(=O)c(-c4nc5c(N[C@H](C)C(F)(F)F)nc(Cl)cc5[nH]4)cc23)cnn1C [Example 152, 3-(6-chloro-4-{[(2R)-1,1,1-trifluoropropan-2-yl]amino}-1H-imidazo[4,5-c]pyridin-2-yl)-5-(1,5-dimethyl-1H-pyrazol-4-yl)-1,6-naphthyridin-2(1H)-one methanesulfonate] |  | 7.9 |  | 
13 | 1 | 8.8 | COc1cc(C2CC2)ncc1-c1nccc2[nH]c(=O)c(-c3nc4c(C)nc(Cl)cc4[nH]3)cc12.CS(=O)(=O)O [Example 140, 3-(6-chloro-4-methyl-1H-imidazo[4,5-c]pyridin-2-yl)-5-(6-cyclopropyl-4-methoxypyridin-3-yl)-1,6-naphthyridin-2(1H)-one methanesulfonate] |  | 6.3 |  | 
14 | 0.63 | 5.3 | CS(=O)(=O)O.[2H]C([2H])([2H])Oc1cccc(F)c1-c1nccc2[nH]c(=O)c(-c3nc4c(CC)nc(Cl)cc4[nH]3)cc12 [Example 136, 3-(6-chloro-4-ethyl-1H-imidazo[4,5-c]pyridin-2-yl)-5-{2-fluoro-6-[(2H3)methyloxy]phenyl}-1,6-naphthyridin-2(1H)-one methanesulfonate] |  | 4.8 |  | 
15 | 0.49 | 3.8 | CCc1nc(Cl)cc2[nH]c(-c3cc4c(-c5cnc(OC(F)F)cc5OC)nccc4[nH]c3=O)nc12.CS(=O)(=O)O [Example 146, 3-(6-chloro-4-ethyl-1H-imidazo[4,5-c]pyridin-2-yl)-5-[6-(difluoromethoxy)-4-methoxypyridin-3-yl]-1,6-naphthyridin-2(1H)-one methanesulfonate] |  | 10 |  | 
16 | 0.36 | 1.8 | CCc1nc(Cl)cc2[nH]c(-c3cc4c(-c5cnc(C6CC6)cc5OC)nccc4[nH]c3=O)nc12.CS(=O)(=O)O [Example 138, 3-(6-chloro-4-ethyl-1H-imidazo[4,5-c]pyridin-2-yl)-5-(6-cyclopropyl-4-methoxypyridin-3-yl)-1,6-naphthyridin-2(1H)-one methanesulfonate] |  | 12 |  | 
17 | 0.31 | 4.3 | CCc1cc(OC)c(-c2nccc3[nH]c(=O)c(-c4nc5c(CC)nc(Cl)cc5[nH]4)cc23)cn1.CS(=O)(=O)O [Example 139, 3-(6-chloro-4-ethyl-1H-imidazo[4,5-c]pyridin-2-yl)-5-(6-ethyl-4-methoxypyridin-3-yl)-1,6-naphthyridin-2(1H)-one methanesulfonate] |  | 7.5 |  | 
